In patent publication US20070117743A1, “New antitumoral compounds” (priority 2003, published 2007):
Like-named read-outs stand apart in the source and are kept apart here. Where a SMILES comes first, the peptide text is derived from it. Bridges are numbered along the chain shown (N, C = ends). [ ]: non-standard residue; d: D form. The star is where a group is joined. d(aIle) = CC[C@H](C)[C@@H](N)C(=O)O; d(aThr) = C[C@@H](O)[C@@H](N)C(=O)O; hCha = N[C@@H](CCC1CCCCC1)C(=O)O; Hexanoyl(5-Me) = CC(C)CCCC(=O)*; Orn = NCCC[C@H](N)C(=O)O; Dhb = C/C=C(\N)C(=O)O

Assays:
Assay type in all cases: cell-based, human
[1] = test system: HT-29; assay: SRB colorimetric assay of cell growth and viability, HT-29; conditions: 48 hours exposure; for GI50: read-out: GI50 HT-29; for CC50: read-out: LC50 HT-29
[2] = test system: PANC-1; assay: SRB colorimetric assay of cell growth and viability, PANC-1; conditions: 48 hours exposure; for CC50: read-out: LC50 PANC-1
[3] = test system: LoVo; assay: SRB colorimetric assay of cell growth and viability, LoVo; conditions: 48 hours exposure; for CC50: read-out: LC50 LOVO
[4] = test system: LoVo-Dox; assay: SRB colorimetric assay of cell growth and viability, LoVo-Dox; conditions: 48 hours exposure; for CC50: read-out: LC50 LOVO-DOX
Outline: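 Optical density at 490 nm of solubilized SRB, from triplicate wells, yields GI, TGI and LC values. Before staining, cells are fixed for 60 minutes at 4° C in cold TCA after a 48-hour exposure.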

[5] = test system: SK-MEL-28; assay: SRB colorimetric assay of cell growth and viability, SK-MEL-28; conditions: 48 hours exposure; for CC50: read-out: LC50 MEL-28
[6] = test system: HeLa-APL; assay: SRB colorimetric assay of cell growth and viability, HeLa-APL; conditions: 48 hours exposure; for CC50: read-out: LC50 HELA-APL
[7] = test system: LNCaP; assay: SRB colorimetric assay of cell growth and viability, LNCaP; conditions: 48 hours exposure; for GI50: read-out: GI50 LN-caP; for CC50: read-out: LC50 LN-caP
[8] = test system: SK-BR-3; assay: SRB colorimetric assay of cell growth and viability, SK-BR-3; conditions: 48 hours exposure
[9] = test system: DU-145; assay: SRB colorimetric assay of cell growth and viability, DU-145; conditions: 48 hours exposure
[10] = test system: HeLa; assay: SRB colorimetric assay of cell growth and viability, HeLa; conditions: 48 hours exposure; for CC50: read-out: LC50 HELA
[11] = test system: A-549; assay: SRB colorimetric assay of cell growth and viability, A-549; conditions: 48 hours exposure; for GI50: read-out: GI50 A-549; for CC50: read-out: LC50 A-549
[12] = test system: IGROV-ET; assay: SRB colorimetric assay of cell growth and viability, IGROV-ET; conditions: 48 hours exposure; for CC50: read-out: LC50 IGROV-ET
[13] = test system: IGROV-1; assay: SRB colorimetric assay of cell growth and viability, IGROV-1; conditions: 48 hours exposure
[14] = test system: K-562; assay: SRB colorimetric assay of cell growth and viability, K-562; conditions: 48 hours exposure; for CC50: read-out: LC50 K-562

C/C=C1\NC(=O)[C@H](Cc2ccccc2)NC(=O)[C@@H](C(C)C)NC(=O)[C@@H]([C@@H](C)CC)NC(=O)[C@H](NC(=O)[C@H](NC(=O)[C@H](CCCN)NC(=O)[C@H]2CCCN2C(=O)[C@H](NC(=O)[C@@H](NC(=O)[C@H](CCC(N)=O)NC(=O)CCCC(C)C)C(C)C)C(C)C)[C@@H](C)CC)[C@@H](C)OC(=O)[C@H](C(C)C)NC1=O [Compound 58, [Gln^12, noD-Val^13]-KF] ({Hexanoyl(5-Me)}-QV[dV][dP][Orn][d(aIle)][d(aThr)][d(aIle)][dV]F[Dhb]V; ester 7-C)
TGI HT-29 ([1]; SRB): 7.11E−06 Molar | GI50 ([1]; SRB): ≥ 7110 nM | CC50 ([1]; SRB): ≥ 7110 nM | GI50 ([2]; SRB): ≥ 7110 nM | TGI PANC-1 ([2]; SRB): 7.11E−06 Molar | CC50 ([2]; SRB): ≥ 7110 nM | GI50 ([3]; SRB): ≥ 7110 nM | TGI LOVO ([3]; SRB): 7.11E−06 Molar | CC50 ([3]; SRB): ≥ 7110 nM | GI50 ([4]; SRB): ≥ 7110 nM | TGI LOVO-DOX ([4]; SRB): 7.11E−06 Molar | CC50 ([4]; SRB): ≥ 7110 nM | GI50 [5]: ≥ 7110 nM | TGI MEL-28 [5]: 7.11E−06 Molar | CC50 [5]: ≥ 7110 nM | GI50 ([6]; SRB): ≥ 7110 nM | TGI HELA-APL ([6]; SRB): 7.11E−06 Molar | CC50 ([6]; SRB): ≥ 7110 nM | TGI LN-caP [7]: 7.11E−06 Molar | GI50 [7]: ≥ 7110 nM | CC50 [7]: ≥ 7110 nM | GI50 [8]: ≥ 7110 nM | LC50 [8]: ≥ 7110 nM | TGI SK-BR-3 [8]: 7.11E−06 Molar | GI50 [9]: ≥ 7110 nM | LC50 (concentration causing 50% net cell kill) [9]: ≥ 7110 nM | TGI DU-145 [9]: 7.11E−06 Molar | GI50 ([10]; SRB): ≥ 7110 nM | TGI HELA ([10]; SRB): 7.11E−06 Molar | CC50 ([10]; SRB): ≥ 7110 nM | TGI A-549 ([11]; SRB): 7.11E−06 Molar | GI50 ([11]; SRB): ≥ 7110 nM | CC50 ([11]; SRB): ≥ 7110 nM | GI50 [12]: ≥ 7110 nM | TGI IGROV-ET [12]: 7.11E−06 Molar | CC50 [12]: ≥ 7110 nM | GI50 [13]: ≥ 7110 nM | LC50 (concentration causing 50% net cell killing) [13]: ≥ 7110 nM | TGI IGROV [13]: 7.11E−06 Molar | GI50 ([14]; SRB): ≥ 7110 nM | TGI K-562 ([14]; SRB): 7.11E−06 Molar | CC50 ([14]; SRB): ≥ 7110 nM

C/C=C1\NC(=O)[C@H](Cc2ccccc2)NC(=O)[C@@H](C(C)C)NC(=O)[C@@H]([C@@H](C)CC)NC(=O)[C@H](NC(=O)[C@H](NC(=O)[C@H](CCCN)NC(=O)[C@H]2CCCN2C(=O)[C@H](NC(=O)[C@H](CCC2CCCCC2)NC(=O)[C@@H](NC(=O)[C@H](NC(=O)CCCC(C)C)C(C)C)[C@@H](C)O)C(C)C)[C@@H](C)CC)[C@@H](C)OC(=O)[C@H](C(C)C)NC1=O [Compound 9, [hCh^11]-KF] ({Hexanoyl(5-Me)}-[dV]T[hCha][dV][dP][Orn][d(aIle)][d(aThr)][d(aIle)][dV]F[Dhb]V; ester 8-C)
TGI HT-29 [1]: 1.92E−07 Molar | GI50 [1]: 86 nM | CC50 [1]: 429 nM | GI50 [2]: 2250 nM | TGI PANC-1 [2]: 5.27E−06 Molar | CC50 [2]: 6470 nM | GI50 [3]: 95.7 nM | TGI LOVO [3]: 1.93E−07 Molar | CC50 [3]: 390 nM | GI50 [4]: 50.7 nM | TGI LOVO-DOX [4]: 1.30E−07 Molar | CC50 [4]: 305 nM | GI50 [5]: 321 nM | TGI MEL-28 [5]: 9.44E−07 Molar | CC50 [5]: 2620 nM | GI50 [6]: 391 nM | TGI HELA-APL [6]: 1.20E−06 Molar | CC50 [6]: 2750 nM | TGI LN-caP [7]: 2.33E−06 Molar | GI50 [7]: 925 nM | CC50 [7]: 5850 nM | GI50 [8]: 149 nM | LC50 [8]: 1360 nM | TGI SK-BR-3 [8]: 3.66E−07 Molar | GI50 [9]: 455 nM | LC50 (concentration causing 50% net cell kill) [9]: 3280 nM | TGI DU-145 [9]: 1.24E−06 Molar | GI50 [10]: 356 nM | TGI HELA [10]: 1.12E−06 Molar | CC50 [10]: 2920 nM | TGI A-549 [11]: 4.48E−07 Molar | GI50 [11]: 184 nM | CC50 [11]: 1640 nM | GI50 [12]: 278 nM | TGI IGROV-ET [12]: 8.09E−07 Molar | CC50 [12]: 2940 nM | GI50 [13]: 237 nM | LC50 (concentration causing 50% net cell killing) [13]: 3310 nM | TGI IGROV [13]: 7.76E−07 Molar | GI50 [14]: 1720 nM | TGI K-562 [14]: 3.39E−06 Molar | CC50 [14]: 6470 nM
